What was measured:
[1] = Experimental log P, shake-flask method; assay type: physicochemical; details: n-octanol/phosphate buffer pH 7.4, read-out: Exp. Log P
Experimental: Partition coefficients or experimental log P values of all synthesized compounds (9–23, 30 and 31) were calculated using the shake-flask method. Log P values were determined using n-octanol and phosphate buffer (pH = 7.4) at 10:1 ratio of volumes. Stock solutions (10^−3 M) of compounds were prepared in DMSO. Glass vials were used to make final solutions i.e. stock solution (250 µL) and phosphate buffer (125 µL). To record the absorbance, wavelength was selected based on λmax of the respective compound. Initial absorbance (Ai) for every compound was noted consuming the stock solution in the buffer phase. Now added n-octanol to every vial and shaken well using a mechanical shaker for 50 minutes. To get separation of both phases, glass vials were centrifuged for 35 min. at 2500 rpm. Then, the layer of octanol was separated from glass vial. The final absorbance (Af) of each compound was recorded by using the buffer layer. The values of P for compounds were determined by the following equation (Eq. 8):8 P=Ai−Af/Af×Vw/Vo

melting point: 201 to 203 °C
logP [1]: 0.23
Compound: O=Cc1ccc(-c2cn3ccnc3c(-c3ccc4c(c3)ncn4C3CCCCC3)n2)cc1 [Compound 11, 4-(8-(1-cyclohexyl-1H-benzo[d]imidazol-5-yl)imidazo[1,2-a]pyrazin-6-yl)benzaldehyde]
